Assay results as given in PubChem BioAssay (NCI).
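Method: 48-hour compound exposure of cells in 96-well plates, five concentrations, linear interpolation of endpoints. At the GI50, growth is halved. TGI: total growth inhibition.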

Tests used:
Experiment in all cases: NCI-60 cell line screen, 48 h
786-0 renal = system: 786-0 renal
A498 renal = system: A498 renal
A549 NSCLC = system: A549 NSCLC
ACHN renal = system: ACHN renal
BT-549 breast = system: BT-549 breast
CAKI-1 renal = system: CAKI-1 renal
CCRF-CEM leukemia = system: CCRF-CEM leukemia
COLO 205 colon = system: COLO 205 colon
DU-145 prostate = system: DU-145 prostate
EKVX NSCLC = system: EKVX NSCLC
HCC-2998 colon = system: HCC-2998 colon
HCT-116 colon = system: HCT-116 colon
HCT-15 colon = system: HCT-15 colon
HL-60(TB) leukemia = system: HL-60(TB) leukemia
HOP-62 NSCLC = system: HOP-62 NSCLC
HOP-92 NSCLC = system: HOP-92 NSCLC
HS 578T breast = system: HS 578T breast
HT29 colon = system: HT29 colon
IGROV1 ovarian = system: IGROV1 ovarian
K-562 leukemia = system: K-562 leukemia
KM12 colon = system: KM12 colon
LOX IMVI melanoma = system: LOX IMVI melanoma
M14 melanoma = system: M14 melanoma
MALME-3M melanoma = system: MALME-3M melanoma
MCF7 breast = system: MCF7 breast
MDA-MB-231 breast = system: MDA-MB-231 breast
MDA-MB-435 = system: MDA-MB-435
MOLT-4 leukemia = system: MOLT-4 leukemia
NCI-H226 lung = system: NCI-H226 lung
NCI-H23 lung = system: NCI-H23 lung
NCI-H460 lung = system: NCI-H460 lung
NCI-H522 lung = system: NCI-H522 lung
NCI/ADR-RES ovarian = system: NCI/ADR-RES ovarian
OVCAR-3 ovarian = system: OVCAR-3 ovarian
OVCAR-4 ovarian = system: OVCAR-4 ovarian
OVCAR-5 ovarian = system: OVCAR-5 ovarian
OVCAR-8 ovarian = system: OVCAR-8 ovarian
PC-3 prostate = system: PC-3 prostate
RPMI-8226 leukemia = system: RPMI-8226 leukemia
RXF 393 renal = system: RXF 393 renal
SF-268 CNS = system: SF-268 CNS
SF-295 CNS = system: SF-295 CNS
SF-539 CNS = system: SF-539 CNS
SK-MEL-2 melanoma = system: SK-MEL-2 melanoma
SK-MEL-28 melanoma = system: SK-MEL-28 melanoma
SK-MEL-5 melanoma = system: SK-MEL-5 melanoma
SK-OV-3 ovarian = system: SK-OV-3 ovarian
SN12C renal = system: SN12C renal
SNB-19 CNS = system: SNB-19 CNS
SNB-75 CNS = system: SNB-75 CNS
SR leukemia = system: SR leukemia
SW-620 colon = system: SW-620 colon
T-47D breast = system: T-47D breast
TK-10 renal = system: TK-10 renal
U251 CNS = system: U251 CNS
UACC-257 melanoma = system: UACC-257 melanoma
UO-31 renal = system: UO-31 renal

CC(=O)N1CCN([C@H]2CCC[C@@H](NC(=O)c3cc4c(F)ccc(C)c4[nH]3)C2)CC1
GI50 (786-0 renal): 36.6 µM
TGI (786-0 renal): > 100 µM
GI50 (A498 renal): 14 µM
TGI (A498 renal): > 100 µM
GI50 (A549 NSCLC): 10.8 µM
TGI (A549 NSCLC): > 100 µM
GI50 (ACHN renal): 32.5 µM
TGI (ACHN renal): > 100 µM
GI50 (BT-549 breast): 15.6 µM
TGI (BT-549 breast): > 100 µM
GI50 (CAKI-1 renal): 11.2 µM
TGI (CAKI-1 renal): > 100 µM
GI50 (CCRF-CEM leukemia): 21.6 µM
TGI (CCRF-CEM leukemia): > 100 µM
GI50 (COLO 205 colon): 24.5 µM
TGI (COLO 205 colon): > 100 µM
GI50 (DU-145 prostate): 24.6 µM
TGI (DU-145 prostate): > 100 µM
GI50 (EKVX NSCLC): 10.7 µM
TGI (EKVX NSCLC): > 100 µM
GI50 (HCC-2998 colon): 18.7 µM
TGI (HCC-2998 colon): > 100 µM
GI50 (HCT-116 colon): 27.5 µM
TGI (HCT-116 colon): > 100 µM
GI50 (HCT-15 colon): 19.9 µM
TGI (HCT-15 colon): > 100 µM
GI50 (HL-60(TB) leukemia): 62.5 µM
TGI (HL-60(TB) leukemia): > 100 µM
GI50 (HOP-62 NSCLC): 15.3 µM
TGI (HOP-62 NSCLC): > 100 µM
GI50 (HOP-92 NSCLC): 18.4 µM
TGI (HOP-92 NSCLC): > 100 µM
GI50 (HS 578T breast): 4.66 µM
TGI (HS 578T breast): 47.6 µM
GI50 (HT29 colon): 16.7 µM
TGI (HT29 colon): 71.6 µM
GI50 (IGROV1 ovarian): 4.83 µM
TGI (IGROV1 ovarian): > 100 µM
GI50 (K-562 leukemia): 31.1 µM
TGI (K-562 leukemia): > 100 µM
GI50 (KM12 colon): 44.3 µM
TGI (KM12 colon): > 100 µM
GI50 (LOX IMVI melanoma): 16.4 µM
TGI (LOX IMVI melanoma): > 100 µM
GI50 (M14 melanoma): 15.3 µM
TGI (M14 melanoma): 34.3 µM
GI50 (MALME-3M melanoma): 10.1 µM
TGI (MALME-3M melanoma): 29.8 µM
GI50 (MCF7 breast): 13.5 µM
TGI (MCF7 breast): > 100 µM
GI50 (MDA-MB-231 breast): 22.3 µM
TGI (MDA-MB-231 breast): > 100 µM
GI50 (MDA-MB-435): 24.6 µM
TGI (MDA-MB-435): > 100 µM
GI50 (MOLT-4 leukemia): 19.4 µM
TGI (MOLT-4 leukemia): > 100 µM
GI50 (NCI-H226 lung): 16.9 µM
TGI (NCI-H226 lung): > 100 µM
GI50 (NCI-H23 lung): 20.3 µM
TGI (NCI-H23 lung): > 100 µM
GI50 (NCI-H460 lung): 18.3 µM
TGI (NCI-H460 lung): > 100 µM
GI50 (NCI-H522 lung): 10.8 µM
TGI (NCI-H522 lung): > 100 µM
GI50 (NCI/ADR-RES ovarian): 69.9 µM
TGI (NCI/ADR-RES ovarian): > 100 µM
GI50 (OVCAR-3 ovarian): 42.9 µM
TGI (OVCAR-3 ovarian): > 100 µM
GI50 (OVCAR-4 ovarian): 11.3 µM
TGI (OVCAR-4 ovarian): > 100 µM
GI50 (OVCAR-5 ovarian): 39.9 µM
TGI (OVCAR-5 ovarian): > 100 µM
GI50 (OVCAR-8 ovarian): 46.5 µM
TGI (OVCAR-8 ovarian): > 100 µM
GI50 (PC-3 prostate): 26.1 µM
TGI (PC-3 prostate): > 100 µM
GI50 (RPMI-8226 leukemia): 24.9 µM
TGI (RPMI-8226 leukemia): > 100 µM
GI50 (RXF 393 renal): 2.17 µM
TGI (RXF 393 renal): 9.61 µM
GI50 (SF-268 CNS): 23 µM
TGI (SF-268 CNS): > 100 µM
GI50 (SF-295 CNS): 10.8 µM
TGI (SF-295 CNS): > 100 µM
GI50 (SF-539 CNS): 13.8 µM
TGI (SF-539 CNS): > 100 µM
GI50 (SK-MEL-2 melanoma): 34.9 µM
TGI (SK-MEL-2 melanoma): > 100 µM
GI50 (SK-MEL-28 melanoma): 13.5 µM
TGI (SK-MEL-28 melanoma): 29 µM
GI50 (SK-MEL-5 melanoma): 15.1 µM
TGI (SK-MEL-5 melanoma): 28.5 µM
GI50 (SK-OV-3 ovarian): 37.2 µM
TGI (SK-OV-3 ovarian): > 100 µM
GI50 (SN12C renal): 21.9 µM
TGI (SN12C renal): > 100 µM
GI50 (SNB-19 CNS): 33.3 µM
TGI (SNB-19 CNS): > 100 µM
GI50 (SNB-75 CNS): 5.43 µM
TGI (SNB-75 CNS): 68.1 µM
GI50 (SR leukemia): 14 µM
TGI (SR leukemia): 81 µM
GI50 (SW-620 colon): 85.1 µM
TGI (SW-620 colon): > 100 µM
GI50 (T-47D breast): 25.2 µM
TGI (T-47D breast): > 100 µM
GI50 (TK-10 renal): 18.7 µM
TGI (TK-10 renal): > 100 µM
GI50 (U251 CNS): 32.1 µM
TGI (U251 CNS): > 100 µM
GI50 (UACC-257 melanoma): 13.6 µM
TGI (UACC-257 melanoma): 27.8 µM
GI50 (UO-31 renal): 1.78 µM
TGI (UO-31 renal): 3.91 µM
